# Measurements: patent US20130150346A1, “Use of FAAH Inhibitors for Treating Parkinson's Disease and Restless Legs Syndrome” (Ironwood Pharmaceutical, Inc., priority 2010, published 2013)
# Key:
# Type in all cases: in vivo, common marmosets (Callithrix jacchus)
# MPTP-lesioned marmosets [1] = assay: Rating of parkinsonian disability, dyskinesia and psychosis in MPTP-lesioned marmosets
# Method: (§1) Six common marmosets (Callithrix jacchus; female; weight, 350-500 g (Harlan, Madison, Wis., USA)) were kept under conditions of controlled temperature (25±2° C.) and a 12-hour light/dark cycle (lights on 6:30 a.m.). Animals were group housed and had access to food, fresh-fruit supplements and water ad libitum and their home cage environment was enriched with primate toys, perches and auditory stimuli. Prior to start of studies, animals were acclimatized to handling, blood collection and administration of treatments (oral syringe feeding and subcutaneous injection) as well as transfer to observation cages for assessment of behavior. A parkinsonian syndrome was induced by once-daily subcutaneous administration of MPTP hydrochloride (Sigma, Canada; 2 mg/kg base concentration in 0.9% saline) for 5 consecutive days. Following this, animals were allowed to recover for 12 weeks to allow parkinsonian symptoms to develop and stabilize. […] Treatment-related complications including dyskinesia and psychosis-like behaviors were evoked by twice-daily treatment with L-DOPA p.o. (as Prolopa®, Roche Canada, Ontario, equivalent to 15 mg/kg L-DOPA and 3.5 mg/kg benserazide) for a minimum of 30 days. […] Disord. 21:839-846; Visanji et al. (2008) Mov. Disord. 23:1922-1925; Visanji et al (2009) Neurobiol Dis. 35: 184-192]. After this time, the animals were used in several studies to evaluate potential anti-parkinsonian and anti-dyskinetic agents. A minimum period of two weeks was allowed between completing any prior study and commencing this study, a period in excess of ten half-lives since administration of any previously employed experimental drug. Throughout the course of the study, on days not requiring plasma sampling or behavioral observations, animals were treated once daily with oral L-DOPA therapy, given at 10:00 a.m. to maintain stable levels of complications. Marmosets treated with MPTP as described in this example are referred to as MPTP-lesioned marmosets.
# (§2) To assess the effect of treatment on plasma FAAH substrate level, total activity, high activity time and count, data were analyzed using a parametric repeated-measures (RM) 1-way analysis of variance (ANOVA) followed by a Student Newman-Keuls Multiple Comparison post hoc test. To assess the effect of treatment on plasma L-DOPA level a paired, two-tailed t-test was used. All FAAH (AEA, OEA, PEA) subbstrate and L-DOPA plasma level data and activity data are presented as the group mean and SEM For measures of parkinsonian disability, dyskinesia and psychosis, data were analyzed via Friedman's test with Dunn's Multiple Comparison post hoc test. […] In all cases, p<0.05 was taken to represent a significant difference.
# (§3) MPTP hydrochloride (Sigma, Canada) was dissolved in 0.9% NaCl sterile solution to a concentration of 0.2 mg/ml (freebase) and administered at 1 ml/kg. Maintenance L-DOPA, administered as Prolopa® capsules (Roche, Mississauga, ON, Canada) containing 50 mg L-DOPA and 12.5 mg benserazide (freebase) was dissolved in Gatorade sports beverage (The Gatorade Company, Chicago, Ill.) prior to oral administration by syringe at a volume of 10 ml/kg. On days of behavioral assessment, L-DOPA (20 mg/kg, freebase) was prepared from the methyl ester form (Sigma, Canada) in combination with benserazide hydrochloride (5 mg/kg, freebase, Sigma, Canada) dissolved in 0.9% sterile saline containing 0.1% ascorbate (Sigma, Canada) and 0.05% absolute ethanol. URB597 (Cayman Chemical, Ann Arbor, Mich.) was formulated in a vehicle containing 50% corn oil (Professional Compounding Centers of America (PCCA), Houston, Tex.) and 50% nutritional drink Ensure™ (Abbott Nutrition, Chicago, Ill.) to make the suspension palatable for marmoset oral dosing. Requisite amounts of URB597 were weighed into sterile 50 ml polypropylene tubes (for the 3, 10, 30 and 60 mg/kg doses, 12, 40, 120 and 240 mg were weighed respectively). Then, 10 ml Corn oil was added and mixed until homogenous.
# FAAH = assay: Plasma FAAH substrate levels (AEA, OEA, PEA) by LC-MS/MS in MPTP-lesioned marmosets treated with URB597
# Method: as §1
# as §3, with “homogenous. Next, 10 ml Ensure™ was added and the mixture mixed gently at first, vortexed and finally sonicated (Ultrasonic Dismembrator, Fisher Scientific model 100, ⅛″) on a medium setting for 30 sec to ensure homogeneity of the suspension. URB597 or vehicle was dosed orally at a volume of 5 ml/kg body weight.” for “homogenous.”
# The effect of oral treatment of MPTP-lesioned marmosets with either vehicle or URB597 (3, 10, 30 or 60 mg/kg) on plasma levels of specific endogenous FAAH substrates was assessed. Levels of the endocannabinoid AEA, in addition to the non-cannabinoid fatty acid amides N-palmitoyl-ethanolamide (PEA) and N-oleoyl-ethanolamide (OEA), were measured by LC-MS/MS assays (described below).
# MPTP-lesioned marmosets [2] = assay: Motor activity (passive infra-red sensors: total activity, high activity counts and time) in MPTP-lesioned marmosets
# Method: as §1, §2, §3
# [3] = URB597 10 mg/kg p.o. + L-DOPA 20 mg/kg s.c., 2-4 h, p>0.05 cf. L-DOPA alone
# [4] = URB597 10 mg/kg p.o. given alone (vehicle s.c.), p>0.05
# [5] = URB597 10 mg/kg p.o. (two doses), four hours after oral administration, mean±SEM, n=6
# [6] = mean of the 4 doses studied (3, 10, 30, 60 mg/kg p.o.) ±SEM
# [7] = URB597 10 mg/kg p.o. + L-DOPA 20 mg/kg s.c., 2-4 h, p<0.05
# [8] = URB597 10 mg/kg p.o. + L-DOPA 20 mg/kg s.c., 2-4 h, p>0.05
smiles,measurement,setting,value
NC(=O)c1cccc(-c2cccc(OC(=O)NC3CCCCC3)c2)c1 [URB597],level of psychosis,"MPTP-lesioned marmosets [1]; URB597 10 mg/kg p.o. + L-DOPA 20 mg/kg s.c., 2-4 h",mild to moderate
same,effect of URB597 on L-DOPA-induced dyskinesia,MPTP-lesioned marmosets [1]; [3],did not modify
same,effect of URB597 on L-DOPA-induced psychosis,MPTP-lesioned marmosets [1]; [3],did not modify
same,effect of URB597 on anti-parkinsonian actions of L-DOPA,MPTP-lesioned marmosets [1]; [3],did not modify
same,dyskinesia score (median),"MPTP-lesioned marmosets [1]; URB597 10 mg/kg p.o. + L-DOPA 20 mg/kg s.c., summed 2-4 h, IQR 13-29, n=6",18
same,parkinsonian disability score (median),"MPTP-lesioned marmosets [1]; URB597 10 mg/kg p.o. + L-DOPA 20 mg/kg s.c., summed 2-4 h, maximum 432, IQR 65-114, n=6",78
same,"effect on parkinsonian disability, dyskinesia or psychosis cf. vehicle",MPTP-lesioned marmosets [1]; [4],did not modify
same,mean plasma level of AEA,FAAH; [5],5.0 ± 0.45 ng/mL
same,mean plasma level of OEA,FAAH; [5],7.7 ± 0.78 ng/mL
same,mean plasma level of PEA,FAAH; [5],7.0 ± 0.27 ng/mL
same,FAAH inhibition suggested by fatty acid amide elevations (no dose response),FAAH; all four doses 3 mg/kg to 60 mg/kg p.o.,complete inhibition of FAAH at all dose levels studied
same,mean fold change of plasma AEA compared to vehicle treatment,FAAH; [6],10.3±0.3 fold
same,mean fold change of plasma OEA compared to vehicle treatment,FAAH; [6],7.8±0.2 fold
same,mean fold change of plasma PEA compared to vehicle treatment,FAAH; [6],1.8±0.1 fold
same,reduction of L-DOPA-induced total activity compared to L-DOPA alone,MPTP-lesioned marmosets [2]; [7],32%
same,reduction of high activity counts evoked by L-DOPA,MPTP-lesioned marmosets [2]; [7],52%
same,reduction of high activity time evoked by L-DOPA,MPTP-lesioned marmosets [2]; [7],48%
same,"high activity counts and high activity time compared to normal, unlesioned animals",MPTP-lesioned marmosets [2]; [8],not significantly different
same,"total activity relative to normal, un-lesioned animals",MPTP-lesioned marmosets [2]; [8],119 % of normal
same,time after which total activity counts were no longer significantly different compared to vehicle (s.c.)-treated animals,"MPTP-lesioned marmosets [2]; URB597 10 mg/kg p.o. + L-DOPA 20 mg/kg s.c., 6 h time course",2.5 h
same,effect on total activity and high activity cf. vehicle,MPTP-lesioned marmosets [2]; [4],did not modify
same,total activity counts,"MPTP-lesioned marmosets [2]; URB597 10 mg/kg p.o. in combination with L-DOPA 20 mg/kg s.c., 2-4 h, mean±SEM, n=6",1879±332 counts
